Experiments:
[1] = Tasting in sweet/salty solution (flavour profile by testers); type: in vivo; conditions: 1 ppm in aqueous 5% sucrose or 0.5% sodium chloride solution, 9 testers; for flavour profile: fatty (oily): scale 1 (action scarcely perceptible) to 9 (action highly perceptible)
Method: The 2,5-diacetyl-3a,5,6,6a-tetrahydro-6a-hydroxy-2,3a,5-trimethylfuro[2,3-d]-1,3-dioxole from Example 1 (1 ppm diacetyl trimer in aqueous 5 wt. % sucrose or 0.5% sodium chloride solution) was investigated for its flavouring action by 9 testers. The actions found were evaluated with a scale of from 1 (action scarcely perceptible) to 9 (action highly perceptible).
For comparison, a flavour profile of diacetyl (1 ppm in aq. 5% sucrose or 0.5% sodium chloride solution) was produced under otherwise identical conditions: fatty (oily) (5), cream (5), butter (7), milk (4), condensed milk (4), fruity (2), cheesy (2), sweet (4), vanillin (2), intensity (7), impact (7), fullness (7), adhesive (5), soft (6)

[2] = Stability of diacetyl trimer on heating; type: physicochemical; conditions: heated at 60° C. to 100° C. for 10 minutes

Structure (SMILES) | flavour profile: fatty (oily) [1] | flavour profile: adhesive ([1]; scale 1 to 9) | flavour profile: butter ([1]; scale 1 to 9) | flavour profile: cheesy ([1]; scale 1 to 9) | flavour profile: condensed milk ([1]; scale 1 to 9) | flavour profile: cream ([1]; scale 1 to 9) | flavour profile: fruity ([1]; scale 1 to 9) | flavour profile: fullness ([1]; scale 1 to 9) | flavour profile: impact ([1]; scale 1 to 9) | flavour profile: intensity ([1]; scale 1 to 9) | flavour profile: milk ([1]; scale 1 to 9) | flavour profile: soft ([1]; scale 1 to 9) | flavour profile: sweet ([1]; scale 1 to 9) | flavour profile: vanillin ([1]; scale 1 to 9) | flavour profile: caramel ([1]; scale 1 to 9) | flavour profile: fresh cheese/quark ([1]; scale 1 to 9) | flavour profile: toffee ([1]; scale 1 to 9) | decomposition on heating [2]
CC(=O)C(C)=O [diacetyl, 2,3-butanedione] | 5 | 5 | 7 | 2 | 4 | 5 | 2 | 7 | 7 | 7 | 4 | 6 | 4 | 2 | – | – | – | –
CC(=O)C1(C)CC2(O)OC(C)(C(C)=O)OC2(C)O1 (racemic) [diacetyl trimer, 2,5-diacetyl-3a,5,6,6a-tetrahydro-6a-hydroxy-2,3a,5-trimethylfuro[2,3-d]-1,3-dioxole] | 7 | 8 | 8 | – | – | 6 | – | 7 | 7 | 6 | – | 6 | 6 | 3 | 4 | 4 | 6 | does not decompose

Reference: patent US8318711B2, “Use of diacetyl trimer as an aromatic and flavouring substance” (Symrise AG, priority 2004, dated 2012)
